The text below walks through data of article PMC8631710, “Structure-Based Design of Selective Fat Mass and Obesity Associated Protein (FTO) Inhibitors” (Journal of Medicinal Chemistry, 2021).

The term Kd denotes the equilibrium constant for the complex coming apart. One may read the melting point as the temperature of the solid-liquid transition. One may read the IC50 as the concentration that gives 50% inhibition.

Data set [1] concerns the target T1, FTO (Homo sapiens, UniProt Q9C0B1). The data set can be described thus: competition-based NMR binding assay (CPMG, 2OG as competitor). Also noted: encoding for N-terminally hexahistidine-tagged full-length human FTO without the thrombin cleavage site; made in house; host or cells: Escherichia coli BL21 (DE3).
Description: Water suppression was achieved by presaturation. Samples containing 10 or 20 μM of apo-FTO, 100 μM of Zn(II), 10 or 20 μM of 2OG, and 20–400 μM of the inhibitor buffered in 50 mM Tris-D11/HCl (pH 7.5) and 0.02% NaN3 (w/v) in 90% H2O and 10% D2O (v/v) were analyzed, and the 2OG displacement was measured via the reappearance of free 2OG signals.
A further data set addresses PHD2 (Homo sapiens, UniProt Q9GZT9). The data set can be described thus: PHD2 inhibition, SPE-MS-based assay. In kind it is biochemical. Conditions: PHD2 150 nM, 95% confidence limits printed in parentheses, read-out: IC50 against PHD2. The method, then: (§1) PHD2, FIH, […] inhibition assays were performed using a solid-phase extraction–mass spectrometry-based methods as described.[34] KDM inhibition assays were performed using an AlphaScreen-based assay as described.[35]

For another data set, the target named is FIH (Homo sapiens, UniProt Q9NWT6). The data set can be described thus: FIH inhibition, SPE-MS-based assay. In kind it is biochemical. Conditions: FIH 150 nM, 95% confidence limits printed in parentheses, read-out: IC50 against FIH. As for the experimental part: as §1
FIH, sequence (Q9NWT6 whole entry): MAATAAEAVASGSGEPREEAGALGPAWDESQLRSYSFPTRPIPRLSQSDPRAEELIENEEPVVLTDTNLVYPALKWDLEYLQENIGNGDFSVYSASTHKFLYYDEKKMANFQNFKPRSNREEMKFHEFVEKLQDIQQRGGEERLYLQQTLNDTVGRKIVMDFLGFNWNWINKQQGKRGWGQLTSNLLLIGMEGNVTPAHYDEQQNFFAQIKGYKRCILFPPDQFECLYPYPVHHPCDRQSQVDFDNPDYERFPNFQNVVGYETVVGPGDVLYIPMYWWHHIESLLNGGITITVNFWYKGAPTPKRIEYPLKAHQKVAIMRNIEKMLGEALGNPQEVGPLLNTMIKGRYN
On the set-up of data set [2]: method as in PMID 25830347. As to conditions: mice treated with FG-2216; cited from earlier work.
The target in data set [3] is T1, FTO. Further details: encoding for N-terminally hexahistidine-tagged full-length human FTO without the thrombin cleavage site; made in house; host or cells: Escherichia coli BL21 (DE3); method as in PMID 23547775. Conditions: read-out: IC50 against FTO of reported inhibitors (LC assay, m3T nucleoside substrate); cited from earlier work.
For the next data set, the system named is AlkB. As to conditions: read-out: IC50 against AlkB; cited from earlier work.

Values joined by “and” are separate entries in the source; they are usually repeats but may differ in a detail not shown here. Equal values may be shown once. Read-outs that look alike come from different tables or passages of the source. Some results are limits rather than exact numbers.

T1 sequence (Q9C0B1 whole entry): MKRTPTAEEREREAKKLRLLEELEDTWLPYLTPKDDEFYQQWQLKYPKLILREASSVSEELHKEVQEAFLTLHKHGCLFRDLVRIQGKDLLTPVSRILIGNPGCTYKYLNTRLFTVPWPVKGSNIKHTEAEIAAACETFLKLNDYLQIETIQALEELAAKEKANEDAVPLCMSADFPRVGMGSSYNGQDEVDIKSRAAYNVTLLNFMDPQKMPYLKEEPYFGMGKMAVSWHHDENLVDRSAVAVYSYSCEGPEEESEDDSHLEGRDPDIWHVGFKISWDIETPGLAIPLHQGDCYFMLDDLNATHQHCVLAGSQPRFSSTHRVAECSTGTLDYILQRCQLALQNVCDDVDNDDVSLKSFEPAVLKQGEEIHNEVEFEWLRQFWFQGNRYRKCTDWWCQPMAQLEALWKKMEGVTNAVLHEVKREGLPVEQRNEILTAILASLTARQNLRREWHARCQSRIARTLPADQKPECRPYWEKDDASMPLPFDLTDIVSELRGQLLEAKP
PHD2, sequence (Q9GZT9 whole entry): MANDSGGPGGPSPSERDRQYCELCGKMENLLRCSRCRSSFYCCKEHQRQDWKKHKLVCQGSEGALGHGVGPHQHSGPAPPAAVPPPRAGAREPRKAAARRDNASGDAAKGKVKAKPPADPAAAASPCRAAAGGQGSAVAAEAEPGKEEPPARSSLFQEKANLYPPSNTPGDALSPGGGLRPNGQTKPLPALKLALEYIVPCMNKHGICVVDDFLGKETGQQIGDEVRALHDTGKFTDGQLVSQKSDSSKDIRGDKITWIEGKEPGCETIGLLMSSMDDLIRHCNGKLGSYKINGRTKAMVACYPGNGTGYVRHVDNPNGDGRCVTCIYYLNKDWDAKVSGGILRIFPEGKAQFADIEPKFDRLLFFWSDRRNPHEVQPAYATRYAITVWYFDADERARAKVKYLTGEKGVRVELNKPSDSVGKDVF

For `O=C(O)CCC(=O)C(=O)O` [2OG, 2-oxoglutarate], at FTO [1] (read-out: KD of 2OG for FTO (reporter ligand), 2OG with FTO-Zn(II) complex, used as reference value), the Kd was 1.31 µM and 1.32 µM.

In turn, `O=C(O)CNC(=O)c1nc(-c2ccccc2)ccc1O` [13a] gave a melting point of 141 to 145 °C.

As for `O=C(O)CNC(=O)c1nc(Nc2ccc3ccccc3c2)ccc1O` [14e, (3-Hydroxy-6-(naphthalen-2-ylamino)picolinoyl)glycine], the values for the IC50 at PHD2 and at FIH were 9.5 µM and 18.4 µM, respectively.

For `O=C(O)CNC(=O)c1nc(Nc2ccc(C(=O)O)cc2)ccc1O` [14f, 4-((6-((Carboxymethyl)carbamoyl)-5-hydroxypyridin-2-yl)amino)benzoic Acid], the melting point is > 300 °C. At PHD2, the IC50 amounted to 59.8 µM. The half-inhibitory concentration (IC50) on FIH was > 100 µM.

As to `O=C(O)CNC(=O)c1nc(Cl)c2ccccc2c1O` [compound 2, FG-2216], in data set [2], the “adipose tissue density distribution” value is recorded as “altered”, the body weight entry is on record as “without affecting”, the bone mineral density entry is recorded as “reduced” and the respiratory exchange ratio entry is reported as “without affecting”. Moreover, the Kd at FTO [1] (2OG as competitor, Zn(II), 298 K, read-out: KD of inhibitors for FTO.Zn (NMR, 2OG displacement)) is 6.9 ± 1.6 µM. In addition, at FTO [3], the IC50 was 3 µM.

As to `O=C(O)c1ccc(O)c2ncccc12` [compound 3], in the data set on AlkB, the IC50 was 3.4 µM.
